Data reported in US20050130134A1, “Means and methods for monitoring non-nucleoside reverse transcriptase inhibitor antiretroviral therapy and guiding therapeutic decisions in the treatment HIV-AIDS” (ViroLogic, Inc., priority 2000, published 2005).

Columns and labels:
Format in all cases: cell-based
[1] = system: HIV-1 reverse transcriptase K101E + G190S (K101E-G190S-RTV); assay: Phenotypic susceptibility assay, site directed mutant K101E-G190S-RTV
Experimental: (§1) Resistance tests were carried out with resistance test vectors using two host cell types. Resistance test vector viral particles were produced by a first host cell (the resistance test vector host cell) that was prepared by transfecting a packaging host cell with the resistance test vector and the packaging expression vector. The resistance test vector viral particles were then used to infect a second host cell (the target host cell) in which the expression of the indicator gene is measured.
(§2) The resistance test vectors containing a functional luciferase gene cassette were constructed and host cells were transfected with the resistance test vector DNA. The resistant test vectors contained patient-derived reverse transcriptase and protease sequences that were either susceptible or resistant to the antiretroviral agents, such as nucleoside reverse transcriptase inhibitors, non-nucleoside reverse transcriptase inhibitors and protease inhibitors. The resistance test vector viral particles produced by transfecting the resistance test vector DNA into host cells, either in the presence or absence of protease inhibitors, were used to infect target host cells grown either in the absence of NRTI or NNRTI or in the presence of increasing concentrations of the drug. The amount of luciferase activity produced in infected target host cells in the presence of drug was compared to the amount of luciferase produced in infected target host cells in the absence of drug. Drug resistance was measured as the amount of drug required to inhibit by 50% the luciferase activity detected in the absence of drug (inhibitory concentration 50%, IC50). The IC50 values were determined by plotting percent drug inhibition vs. log10 drug concentration.
Host cells were seeded in 10-cm-diameter dishes and were transfected several days after plating with resistance test vector plasmid DNA and the envelope expression vector. Transfections were performed using a calcium-phosphate precipitation procedure. The cell culture media containing the DNA precipitate was replaced with fresh medium, from one to 24 hours, after transfection. Cell culture media containing resistance test vector viral particles was harvested one to four days after transfection and was passed through a […] filter before being stored at −80° C. HIV capsid protein (p24) levels in the harvested cell culture media were determined by an EIA method as described by the manufacturer (SIAC; Frederick, Md.). Before infection, target cells (293 and 293/T) were plated in cell culture media. Control infections were performed using cell culture media from mock transfections (no DNA) or transfections containing the resistance test vector plasmid DNA without the envelope expression plasmid. One to three or more days after infection the media was removed and cell lysis buffer (Promega) was added to each well. […] The inhibitory effect of the drug was determined using the following equation: % luciferase inhibition=1-(RLUluc[drug]÷RLUluc)×100 where RLUluc [drug] is the relative light unit of luciferase activity in infected cells in the presence of drug and RLUluc is the Relative Light Unit of luciferase activity in infected cells in the absence of drug. IC50 values were obtained from the sigmoidal curves that were generated from the data by plotting the percent inhibition of luciferase activity vs. the log10 drug concentration.
Mutations may be incorporated alone and/or in combination with other known drug resistance mutations that are thought to modulate the susceptibility of HIV to a certain drug or class of drugs. Mutations are introduced into the resistance test vector through any of the widely known methods for site-directed mutagenesis. In one embodiment of this invention the mega-primer PCR method for site-directed mutagenesis is used.

[2] = system: HIV-1 reverse transcriptase V108I (V108I-RTV); assay: Phenotypic susceptibility assay, site directed mutant V108I-RTV; settings: >1 loss of susceptibility
Experimental: as §1
as §2, with “The amount of luciferase activity produced in infected target host cells in the presence of drug was compared to the amount of luciferase produced in infected target host cells in the absence of drug. Drug resistance was measured as the amount of drug required to inhibit by 50% the luciferase activity detected in the absence of drug (inhibitory concentration 50%, IC50).” left out
(§3) Host cells were seeded in 10-cm-diameter dishes and were transfected several days after plating with resistance test vector plasmid DNA and the envelope expression vector. […] HIV capsid protein (p24) levels in the harvested cell culture media were determined by an EIA method as described by the manufacturer (SIAC; Frederick, Md.). […] The inhibitory effect of the drug was determined using the following equation: % luciferase inhibition=1-(RLUluc[drug]÷RLUluc)×100 where RLUluc [drug] is the relative light unit of luciferase activity in infected cells in the presence of drug and RLUluc is the Relative Light Unit of luciferase activity in infected cells in the absence of drug. […]

[3] = system: HIV-1 reverse transcriptase V106A (V106A-RTV); assay: Phenotypic susceptibility assay, site directed mutant V106A-RTV; settings: >1 loss of susceptibility
Experimental: as §1
as §2, with “The amount of luciferase activity produced in infected target host cells in the presence of drug was compared to the amount of luciferase produced in infected target host cells in the absence of drug. Drug resistance was measured as the amount of drug required to inhibit by 50% the luciferase activity detected in the absence of drug (inhibitory concentration 50%, IC50).” left out
as §3

[4] = system: HIV-1 reverse transcriptase F227L (F227L-RTV); assay: Phenotypic susceptibility assay, site directed mutant F227L-RTV; settings: >1 loss, <1 increased susceptibility
Experimental: as §1
as §2, with “The amount of luciferase activity produced in infected target host cells in the presence of drug was compared to the amount of luciferase produced in infected target host cells in the absence of drug. Drug resistance was measured as the amount of drug required to inhibit by 50% the luciferase activity detected in the absence of drug (inhibitory concentration 50%, IC50).” left out
as §3

[5] = system: HIV-1 reverse transcriptase V106A + V189L (V106A-V189L-RTV); assay: Phenotypic susceptibility assay, site directed mutant V106A-V189L-RTV; settings: >1 loss of susceptibility
Experimental: as §1
as §2, with “The amount of luciferase activity produced in infected target host cells in the presence of drug was compared to the amount of luciferase produced in infected target host cells in the absence of drug. Drug resistance was measured as the amount of drug required to inhibit by 50% the luciferase activity detected in the absence of drug (inhibitory concentration 50%, IC50).” left out
as §3

[6] = system: HIV-1 reverse transcriptase V106A + F227L (V106A-F227-RTV); assay: Phenotypic susceptibility assay, site directed mutant V106A-F227-RTV; settings: >1 loss of susceptibility
Experimental: as §1
as §2, with “The amount of luciferase activity produced in infected target host cells in the presence of drug was compared to the amount of luciferase produced in infected target host cells in the absence of drug. Drug resistance was measured as the amount of drug required to inhibit by 50% the luciferase activity detected in the absence of drug (inhibitory concentration 50%, IC50).” left out
as §3

[7] = system: HIV-1 reverse transcriptase V106A + Y181C + F227L (V106A-Y181C-F227L-RTV); assay: Phenotypic susceptibility assay, site directed mutant V106A-Y181C-F227L-RTV; settings: >1 loss of susceptibility
Experimental: as §1
as §2, with “The amount of luciferase activity produced in infected target host cells in the presence of drug was compared to the amount of luciferase produced in infected target host cells in the absence of drug. Drug resistance was measured as the amount of drug required to inhibit by 50% the luciferase activity detected in the absence of drug (inhibitory concentration 50%, IC50).” left out
as §3

[8] = system: HIV-1 reverse transcriptase L100I (L100I-RTV); assay: Phenotypic susceptibility assay, site directed mutant L100I-RTV; settings: >1 loss of susceptibility
Experimental: as §1
as §2, with “The amount of luciferase activity produced in infected target host cells in the presence of drug was compared to the amount of luciferase produced in infected target host cells in the absence of drug. Drug resistance was measured as the amount of drug required to inhibit by 50% the luciferase activity detected in the absence of drug (inhibitory concentration 50%, IC50).” left out
as §3

SMILES: O=C1Nc2ccc(Cl)cc2[C@@](C#CC2CC2)(C(F)(F)F)O1 [efavirenz]
- fold change in susceptibility compared to wild type control RTV ([1]; >1 loss of susceptibility): greater than 250 fold
- fold change in susceptibility compared to wild type control RTV ([1]; >1 loss, <1 increased susceptibility): 7.6 fold
- fold change in susceptibility compared to wild type control RTV [2]: 1.7 fold
- fold change in susceptibility compared to wild type control RTV [3]: 1.7 fold
- fold change in susceptibility compared to wild type control RTV [4]: 0.48 fold
- fold change in susceptibility compared to wild type control RTV [5]: 1 fold
- fold change in susceptibility compared to wild type control RTV [6]: 8 fold
- fold change in susceptibility compared to wild type control RTV [7]: 12 fold
- fold change in susceptibility compared to wild type control RTV [8]: 10 fold
